These results are taken from ChEMBL document CHEMBL4130554, “Inducing Secondary Metabolite Production by Combined Culture of Talaromyces aculeatus and Penicillium variabile” (J Nat Prod, 2017).

One assay relates to K562. Briefly: Cytotoxicity against human K562 cells by MTT method. The class given is functional, cell-based. For orientation: Formazan colour is commonly taken as a measure of viable cells.
The next assay concerns MCF7. Description: Cytotoxicity against human MCF7 cells by SRB method. The assay is classed as functional, cell-based.
For another assay, the system named is HeLa. Briefly: Cytotoxicity against human HeLa cells by SRB method. The class given is functional, cell-based. (In general: The SRB assay estimates cell density from bound dye.)
Another assay has as its system HL-60. Briefly: Cytotoxicity against human HL60 cells by MTT method.
Another assay concerns A549. Description: Cytotoxicity against human A549 cells by SRB method.
The subject of the next assay is HCT-116. Briefly: Cytotoxicity against human HCT116 cells by SRB method.

Each structure is given as a SMILES string. pIC50: −log10 of the molar value. Where only a bound is given, the exact number is not on record here.

Usually pIC50 stands for −log10 of the IC50, conventionally taken in molar units. Higher therefore signals a small IC50.

On to `CC[C@H](C)/C=C/C=C(\C)C[C@@H](C)/C=C/C=C/[C@H]1OC(=O)[C@H](O)[C@@H]2O[C@]12C`, for which the pIC50 in the assay on K562, in the assay on MCF7, with HeLa, in the assay with HL-60, in the assay with A549 and with HCT-116 was less than 4.30 each time.

On to `COC(=O)[C@@H]1O[C@@H](/C=C/C=C/[C@H](C)C/C(C)=C/C=C/[C@@H](C)CCO)[C@@]2(C)O[C@@H]12`, for which the pIC50 in the assay on K562, in the assay on MCF7, in the assay with HeLa, in the assay on HL-60, with A549 and with HCT-116 was less than 4.30 each time.

Take `CC[C@H](C)/C=C/C=C(\C)C[C@@H](C)/C=C/C=C/[C@H]1OC(=O)C=C[C@]1(C)O`: the pIC50 with K562 is 5.54; in the assay with MCF7, 5.01; with HeLa, 5.26; in the assay with HL-60, 5.92; in the assay with A549, 5.29; with HCT-116, 5.85.

With `CC[C@H](C)/C=C/C=C(\C)C[C@@H](C)/C=C/C=C/[C@@H]1O[C@@H](C(=O)OC)[C@@H]2O[C@]12C`, the negative logarithm of the IC50 (pIC50) in the assay with K562, with MCF7, with HeLa, with HL-60, in the assay with A549 and in the assay with HCT-116 was less than 4.30 throughout.

On to `CC[C@@H](/C=C/C=C(\C)C[C@@H](C)/C=C/C=C/[C@@H]1O[C@@H](C(=O)OC)[C@@H]2O[C@]12C)CO`, for which the pIC50 with K562, in the assay on MCF7, in the assay with HeLa, in the assay with HL-60, in the assay with A549 and with HCT-116 was less than 4.30 in each case.

Consider `COc1cccc2c1C(=O)c1c(O)c3c(c(O)c1C2=O)C[C@@](O)(C(=O)CO)C[C@@H]3O[C@H]1C[C@H](N)[C@H](O)[C@H](C)O1` [DOXORUBICIN], for which the pIC50 is 6.22 in the assay on K562, 6.22 with MCF7 and 6.30 with HeLa.
